Experimental data published in US20180271808A1, “METHODS OF REDUCING CHEMORESISTANCE AND TREATING CANCER” (Mitchell Woods Pharmaceuticals, Inc., priority 2015, published 2018).
Like-named read-outs stand apart in the source and are kept apart here.

Key:
[1] = tested on: HIF-1α, phospho-PKM2 (Ser37), phospho-β-catenin (Tyr333) in PANC-1 nuclear extracts; experiment: Western blot of nuclear translocation of cancer biomarkers in PANC-1 nuclear extracts; type: cell-based, human; details: PANC-1, 1 μM, 10 minutes, with and without AM251 1 μM 20 minutes
Method: Nuclear protein extraction was carried out using a NE-PER Kit followed by the determination of the levels of HIF-1α and phospho-active forms of β-catenin (Tyr333) and PKM2 (Ser37) by immunoblotting. The same experiment was repeated three times on three separate days.
Cells were lysed in radioimmuno precipitation buffer containing EGTA and EDTA (Boston BioProducts, Ashland, Mass.) supplemented with protease inhibitor cocktail (Sigma-Aldrich). Protein concentration in clarified lysates was determined using the bicinchoninic acid reagent (Thermo Fisher Scientific). Proteins (20 μg/well) were separated on 4-12% precast gels (Invitrogen, Carlsbad, Calif.) using SDS-polyacrylamide gel electrophoresis under reducing conditions and then electrophoretically transferred onto polyvinylidenefluoride membrane (Invitrogen). […] All membrane-bound primary antibodies were detected with horseradish peroxidase-conjugated secondary antibodies (Santa Cruz Biotechnology, Dallas, Tex.) and visualized by enhanced chemiluminescence (ECL Plus, GE Healthcare, Piscataway, N.J.). Quantification of the protein bands was performed by volume densitometry using ImageJ software (National Institutes of Health, Bethesda, Md.) and normalization to β-actin or Lamin A/C. […]

[2] = tested on: phospho-PKM2 (Ser37) in PANC-1 cells; experiment: Immunofluorescence confocal measurement of nuclear phospho-PKM2; type: cell-based, human; details: PANC-1, 1 μM 10 minutes, basal and after AM251 stimulation
Method: Measurement of nuclear phospho-PKM2. PANC-1 cells were seeded on Lab-Tek II CC2 chamber slides (Thermo Scientific Nunc, Rochester, N.Y.) and grown until they reached >70% confluence. […] The GPR55 agonist AM251 (1 μM) was added for 20 minutes where indicated. Cells were washed twice with PBS, fixed with 4% (v/v) paraformaldehyde (Sigma-Aldrich) in PBS for 20 minutes at room temperature, followed by 3×PBS washes and permeabilization with 0.1% Triton X-100 (Sigma-Aldrich) for 15 minutes. Next, the cells were incubated with 10% goat serum for 1 hour, followed by overnight incubation with rabbit polyclonal anti-phospho-PKM2 antibody (Ser37, 1:200) at 4° C. After 3×PBS washes, Alexa Fluor 488-conjugated goat anti-rabbit antibody (Invitrogen; 1:1000) was added to the slides for 2 hours at room temperature. The slides were washed with PBS and mounted in Prolong Gold antifade mounting medium containing DAPI (4′,6-diamidino-2-phenylindole) (Invitrogen) for nuclear counterstaining. The slides were cured for 24 hours at room temperature in the dark, after which images were acquired with a Zeiss LSM 710 confocal microscope using Carl Zeiss LSM software (Thorn-wood, NY). ImageJ software was used to quantify the changes in the nuclear pool of phospho-PKM2 levels.

[3] = tested on: AKT phosphorylation (PANC-1 cells); experiment: Western blot of phospho-active (Ser473) and total AKT in PANC-1 cells; details: PANC-1, 1 μM 10 minutes, basally and after AM251 20 minutes
Method: (§4) In the first series of experiments, PANC-1 cells were incubated with media containing vehicle (0.01% DMSO) or MNF (10, 100, 500 and 1000 nM) for 24 hours. The medium was removed, and cells were collected and processed for immunoblot analysis. […] Cell lysates were processed for immunoblot analysis, focusing on the expression of selected cancer cell biomarkers. In the third series of experiments, serum-starved PANC-1 cells were pretreated with vehicle (0.01% DMSO), 1 μM MNF, or 1 μM CID for 10 minutes followed by a 20 minute incubation with and without 1 AM251. Cell lysates were processed for immunoblot analysis and the levels of phospho-active (Ser473) and total forms of AKT were determined. All experiments were repeated three times on three separate days, unless stated otherwise.

GPR55 (PANC-1 cells) = experiment: Western blot of cancer biomarker and MDR proteins in PANC-1 cell lysates; details: for AM251-induced increase in BCRP expression: PANC-1, antagonist 1 μM before AM251 1 μM
Method: as §4
Cells were lysed in radioimmuno precipitation buffer containing EGTA and EDTA (Boston BioProducts, Ashland, Mass.) supplemented with protease inhibitor cocktail (Sigma-Aldrich). Protein concentration in clarified lysates was determined using the bicinchoninic acid reagent (Thermo Fisher Scientific). […] Western blots were performed according to standard methods, which involved a blocking step in Tris-buffered saline/0.1% Tween-20 (TBS-T) supplemented with 5% non-fat milk and incubation with primary antibodies of interest. All membrane-bound primary antibodies were detected with horseradish peroxidase-conjugated secondary antibodies (Santa Cruz Biotechnology, Dallas, Tex.) and visualized by enhanced chemiluminescence (ECL Plus, GE Healthcare, Piscataway, N.J.). Quantification of the protein bands was performed by volume densitometry using ImageJ software (National Institutes of Health, Bethesda, Md.) and normalization to β-actin or Lamin A/C. […] The antibodies were used at the dilution recommended by the manufacturers.

PANC-1 cells [4] = experiment: [3H]-thymidine incorporation (proliferation / cytotoxicity) in PANC-1 cells; type: cell-based, human; details: for IC50: Homo sapiens; for fold decrease in calculated IC50 by MNF pretreatment: PANC-1, MNF 1 μM 24 hours pretreatment
Method: (§1) [^3H]-Thymidine incorporation studies. Cells were seeded in 24-well plates at 2.5×10^4 cells per well and grown for 24 hours at 37° C. The effect of MNF (0-10 μM) on [^3H]-thymidine incorporation into PANC-1, MDA-MB-231, and MCF-7 cells was investigated following procedures previously described in Paul, et al., Cannabinoid receptor activation correlates with the proapoptotic action of the β2-adrenergic agonist (R,R′)-4-methoxy-1-naphthylfenoterol in HepG2 hepatocarcinoma cells, J. Pharmacol. Exp. Ther., vol. 343, pgs 157-166 (2012); and Paul, et al., (R,R′)-4′-methoxy-1-naphthylfenoteroltargets GPR55-mediated ligand internalization and impairs cancer cellmotility, Biochem. Pharmacol., vol. 87, pgs 547-561 (2014). The effect of MNF on doxorubicin cytotoxicity in PANC-1 cells was measured using [^3H]-thymidine incorporation. In these studies, the cells were incubated with either fresh medium containing vehicle (0.01% DMSO) or MNF (1 μM) for 24 hours. The spent media was removed and replaced with fresh media supplemented with doxorubicin (0-10 μM) and the cells incubated for an additional 24 hours. [^3H]-Thymidine (1 μCi per well) incorporation into DNA was then performed for 16 hours. Cells were washed with PBS, lysed in 600 μt of 0.1 N NaOH, and the radioactivity was measured by liquid scintillation counting. Three independent experiments were conducted on separate days. Similar experiments were conducted to investigate the effect of MNF on the cytotoxicity of gemcitabine (0-10 μM) in PANC-1 cells. The effects of MNF (1 μM) on the cytotoxicity of doxorubicinin MDA-MB-231 cells and of MNF (0.01 μM) on the cytotoxicity of doxorubicin in U87MG cells were investigated using the protocol described above.
(§2) Sigmoidal dose-response curves (IC50 curves) were determined using the ‘nonlinear regression (curve fit)’ model contained within the Prism 4 software package (GraphPad Software, Inc., La Jolla, Calif.) running on a personal computer. For immunoblot analyses, statistical comparisons between treated and control groups were performed using unpaired Student's t-tests. Data are expressed as relative fold change ±standard deviation. P values ≤0.05 were considered significant.

[5] = tested on: MDA-MB-231 breast cancer cells; experiment: [3H]-thymidine incorporation (proliferation / cytotoxicity) in MDA-MB-231 cells; type: cell-based, human; details: for IC50: Homo sapiens
Method: as §1, §2

MCF-7 cells = experiment: [3H]-thymidine incorporation (proliferation) in MCF-7 cells; type: cell-based, human; details: MCF-7 (low GPR55), MNF 24 hours
Method: as §1, with “Similar experiments were conducted to investigate the effect of MNF on the cytotoxicity of gemcitabine (0-10 μM) in PANC-1 cells. The effects of MNF (1 μM) on the cytotoxicity of doxorubicinin MDA-MB-231 cells and of MNF (0.01 μM) on the cytotoxicity of doxorubicin in U87MG cells were investigated using the protocol described above.” left out

PANC-1 cells [6] = experiment: Intracellular uptake of doxorubicin (fluorescence imaging) in PANC-1 cells; type: cell-based, human; details: PANC-1, MNF 1 μM 24 hours, then doxorubicin 0.125 μM 2 hours, vs control cells
Method: (§3) PANC-1 and MDA-MB-231 cells were seeded on Lab-Tek II CC2 chamber slides and grown until they reached >70% confluence. The original media was removed and cells were incubated in fresh media supplemented with vehicle (0.01% DMSO) or 1 μM MNF for 24 hours, after which doxorubicin (0.125 μM) was added for an additional 2 hours. The cells were washed with PBS and the images were acquired with a Zeiss axiovert 200 microscope using standard FITC filter (#09 filter set) and Carl Zeiss LSM software. ImageJ software was used to quantify the changes in the nuclear accumulation of doxorubicin defined as ring-shaped regions of interest (ROI).

MDA-MB-231 cells = experiment: Intracellular uptake of doxorubicin (fluorescence imaging) in MDA-MB-231 cells; type: cell-based, human; details: MDA-MB-231, MNF 1 μM 24 hours, then doxorubicin 0.125 μM 2 hours, vs control cells
Method: as §3

[7] = tested on: Pgp, BCRP in PANC-1 nuclear extracts; experiment: Immunoblot of Pgp and BCRP in PANC-1 nuclear extracts; type: cell-based, human; details: MNF 0.5 and 1 μM, 24 hours
Method: Values were normalized to PANC-1 cells treated with 0.01% DMSO as control. Data are expressed as mean±SD from 3 independent experiments. FIG. 5C presents fluorescence imaging of intracellular doxorubicin in PANC-1 cells pretreated with MNF (1 μM) for 24 hours and followed with 0.125 μM of doxorubicin treatment for 2 hours. The upper panel of FIG. 5D presents representative immunoblot depicting protein levels of Pgp, BCRP, and lamin A/C in PANC-1 nuclear extracts after cell treatment with 0.5 and 1 μM of MNF for 24 hours. In the lower panel of FIG. 5D, protein bands were quantified by densitometry and the data normalized to lamin A/C levels and plotted relative to cells treated with 0.01% DMSO as control.
Cells were lysed in radioimmuno precipitation buffer containing EGTA and EDTA (Boston BioProducts, Ashland, Mass.) supplemented with protease inhibitor cocktail (Sigma-Aldrich). Protein concentration in clarified lysates was determined using the bicinchoninic acid reagent (Thermo Fisher Scientific). […] All membrane-bound primary antibodies were detected with horseradish peroxidase-conjugated secondary antibodies (Santa Cruz Biotechnology, Dallas, Tex.) and visualized by enhanced chemiluminescence (ECL Plus, GE Healthcare, Piscataway, N.J.). […]

U87MG glioblastoma cells = experiment: [3H]-thymidine incorporation (doxorubicin cytotoxicity) in U87MG cells; type: cell-based; details: Homo sapiens, U-87 MG
Method: [^3H]-Thymidine incorporation studies. Cells were seeded in 24-well plates at 2.5×10^4 cells per well and grown for 24 hours at 37° C. The effect of MNF (0-10 μM) on [^3H]-thymidine incorporation into PANC-1, MDA-MB-231, and MCF-7 cells was investigated following procedures previously described in Paul, et al., Cannabinoid receptor activation correlates with the proapoptotic action of the β2-adrenergic agonist (R,R′)-4-methoxy-1-naphthylfenoterol in HepG2 hepatocarcinoma cells, J. Pharmacol. Exp. Ther., vol. 343, pgs 157-166 (2012); and Paul, et al., (R,R′)-4′-methoxy-1-naphthylfenoteroltargets GPR55-mediated ligand internalization and impairs cancer cellmotility, Biochem. Pharmacol., vol. 87, pgs 547-561 (2014). The effect of MNF on doxorubicin cytotoxicity in PANC-1 cells was measured using [^3H]-thymidine incorporation. In these studies, the cells were incubated with either fresh medium containing vehicle (0.01% DMSO) or MNF (1 μM) for 24 hours. […] Cells were washed with PBS, lysed in 600 μt of 0.1 N NaOH, and the radioactivity was measured by liquid scintillation counting. […]
Sigmoidal dose-response curves (IC50 curves) were determined using the ‘nonlinear regression (curve fit)’ model contained within the Prism 4 software package (GraphPad Software, Inc., La Jolla, Calif.) running on a personal computer. […] Data are expressed as relative fold change ±standard deviation. […]

[8] = PANC-1, MNF 1 μM 24 hours, medium replaced, then drug 0-10 μM 24 hours, read-out: calculated IC50 of chemotherapeutic drug, after MNF pretreatment
[9] = PANC-1, vehicle (0.01% DMSO) 24 hours, then drug 0-10 μM 24 hours, read-out: calculated IC50 of chemotherapeutic drug, without MNF pretreatment

Compound: Cc1ccc(-c2n[nH]c3c2C(c2cccc(O)c2)N(c2ccc(C(=O)O)cc2)C3=O)cc1 (centres unmarked) [CID]
- constitutive and AM251-induced nuclear accumulation of HIF-1α and phosphoactive forms of PKM2 (Ser37) and β-catenin (Tyr333) [1]: significantly abrogated
- nuclear pool of phosphoactive form of PKM2 [2]: markedly reduced
- activating phosphorylation of AKT [3]: significantly decreased
- induction of EGFR, BCRP, PKM2 by AM251 (GPR55 (PANC-1 cells); PANC-1, 1 μM pretreatment 30 minutes, then AM251 1 μM 24 hours): blocked
- basal levels of EGFR, BCRP, and PKM2 proteins (GPR55 (PANC-1 cells); PANC-1, 1 μM, 24 hours): significantly reduced
- AM251-induced increase in BCRP expression (GPR55 (PANC-1 cells)): blocked

Compound: COc1ccc(C[C@@H](C)NC[C@H](O)c2cc(O)cc(O)c2)c2ccccc12 [MNF, (R,R′)-4′-methoxy-1-naphthyl-fenoterol]
- IC50 (PANC-1 cells [4]; PANC-1, MNF 0-10 μM, 24 hours, mean±SD, read-out: IC50, inhibition in cell growth): 650 ± 250 nM
- maximum reduction in cell growth (PANC-1 cells [4]; PANC-1, MNF 0-10 μM, 24 hours, p<0.001): 42%
- IC50 ([5]; MDA-MB-231, MNF 24 hours, read-out: IC50, inhibition in cell growth): 106 ± 3 nM
- dose-dependent inhibition in cell growth ([5]; MDA-MB-231, MNF 24 hours): 50%
- effect on the growth of MCF-7 cells (MCF-7 cells): no significant effect
- constitutive and AM251-induced nuclear accumulation of HIF-1α and phosphoactive forms of PKM2 (Ser37) and β-catenin (Tyr333) [1]: significantly abrogated
- nuclear pool of phosphoactive form of PKM2 [2]: markedly reduced
- uptake and nuclear retention of doxorubicin (PANC-1 cells [6]): enhancement
- uptake and nuclear retention of doxorubicin (MDA-MB-231 cells): enhanced uptake and nuclear retention
- nuclear pool of Pgp and BCRP [7]: marked reduction
- activating phosphorylation of AKT [3]: significantly decreased
- expression of cancer biomarkers (EGFR, β-catenin, PKM2, cyclin D1, Pgp, BCRP, MRP1, MRP5) (GPR55 (PANC-1 cells); PANC-1, MNF 10-1000 nM, 24 hours): dose-dependently reduces
- AM251-induced increase in BCRP expression (GPR55 (PANC-1 cells)): blocked

Compound: COc1cccc2c1C(=O)c1c(O)c3c(c(O)c1C2=O)C[C@@](O)(C(=O)CO)C[C@@H]3O[C@H]1C[C@H](N)[C@H](O)[C@H](C)O1 [doxorubicin]
- IC50 (PANC-1 cells [4]; [8]): 51 ± 2 nM
- IC50 (PANC-1 cells [4]; [9]): 193 ± 4 nM
- fold decrease in calculated IC50 by MNF pretreatment (PANC-1 cells [4]; p<0.001): ~4 fold
- IC50 ([5]; MDA-MB-231, MNF 1 μM 24 hours, then doxorubicin 0-10 μM 24 hours, p<0.05, read-out: calculated IC50 of doxorubicin, after MNF pretreatment): 255 ± 13 nM
- IC50 ([5]; MDA-MB-231, doxorubicin 0-10 μM 24 hours, read-out: calculated IC50 of doxorubicin, without MNF pretreatment): 570 ± 14 nM
- IC50 (U87MG glioblastoma cells; MNF 0.01 μM 24 hours, then doxorubicin 24 hours, p<0.001, read-out: calculated IC50 of doxorubicin, after MNF pretreatment): 1.1 ± 0.5 nM
- IC50 (U87MG glioblastoma cells; doxorubicin 24 hours, read-out: calculated IC50 of doxorubicin, without MNF pretreatment): 6 ± 0.8 nM

Compound: Nc1ccn([C@@H]2O[C@H](CO)[C@@H](O)C2(F)F)c(=O)n1 [gemcitabine]
- IC50 (PANC-1 cells [4]; [8]): 153 ± 3 nM
- IC50 (PANC-1 cells [4]; [9]): 487 ± 3 nM
- fold decrease in calculated IC50 by MNF pretreatment (PANC-1 cells [4]; p<0.001): ~3 fold
